Measurements as given in ChEMBL document CHEMBL5344477, “Discovery of benzoheterocyclic-substituted amide derivatives as apoptosis signal-regulating kinase 1 (ASK1) inhibitors” (RSC Med Chem, 2024).

Experiments:
[1] = Metabolic stability in human liver microsomes assessed as half life at 1 uM measured upto 90 mins by LC-MS/MS analysis; format: ADME, Microsome
[2] = Cmax in Sprague-Dawley rat at 1 mg/kg, iv measured upto 24 hrs by LC-MS/MS analysis; format: ADME, organism-based; design: dose 1 mg/kg, time < 24 hrs, route iv; settings: in vivo
[3] = Apparent […] clearance in Sprague-Dawley rat at 1 mg/kg, iv measured upto 24 hrs by LC-MS/MS analysis; format: ADME, organism-based; settings: in vivo
[4] = AUClast in Sprague-Dawley rat at 5 mg/kg, po measured upto 24 hrs by LC-MS/MS analysis; format: ADME, organism-based; design: dose 5 mg/kg, time < 24 hrs, route po; settings: in vivo
[5] = Metabolic stability in rat liver microsomes assessed as half life at 1 uM measured upto 90 mins by LC-MS/MS analysis; format: ADME, Microsome
[6] = Volume of distribution at steady state in Sprague-Dawley rat at 1 mg/kg, iv measured upto 24 hrs by LC-MS/MS analysis; format: ADME, organism-based; settings: in vivo, read-out: Vdss
[7] = Half life in Sprague-Dawley rat at 5 mg/kg, po measured upto 24 hrs by LC-MS/MS analysis; format: ADME, organism-based; settings: in vivo
[8] = Half life in Sprague-Dawley rat at 1 mg/kg, iv measured upto 24 hrs by LC-MS/MS analysis; format: ADME, organism-based; settings: in vivo
[9] = Metabolic stability in human liver microsomes assessed as clearance at 1 uM measured upto 90 mins by LC-MS/MS analysis; format: ADME, Microsome; settings: read-out: CLH
[10] = AUClast in Sprague-Dawley rat at 1 mg/kg, iv measured upto 24 hrs by LC-MS/MS analysis; format: ADME, organism-based; design: dose 1 mg/kg, time < 24 hrs, route iv; settings: in vivo
[11] = Metabolic stability in rat liver microsomes assessed as clearance at 1 uM measured upto 90 mins by LC-MS/MS analysis; format: ADME, Microsome; settings: read-out: CLH
[12] = Oral bioavailability in Sprague-Dawley rat at 5 mg/kg measured upto 24 hrs by LC-MS/MS analysis; format: ADME, organism-based; settings: in vivo
[13] = Cmax in Sprague-Dawley rat at 5 mg/kg, po measured upto 24 hrs by LC-MS/MS analysis; format: ADME, organism-based; design: dose 5 mg/kg, time < 24 hrs, route po; settings: in vivo

CC(C)n1cnnc1-c1cccc(NC(=O)c2cc3c(cc2F)OCC(=O)N3)n1
half-life at 1 µM [1]: 9.74 h | Cmax [2]: 1040 ng/mL | CL/F [3]: 10.2 mL/min/kg | AUC(0-t) at 24 h [4]: 4290 ng·h/mL | half-life at 1 µM [5]: 3.02 h | Vd [6]: 0.85 L/kg | half-life [7]: 1.86 h | half-life [8]: 1.11 h | CLint scaled at 1 µM [9]: 3 mL/min/kg | AUC(0-t) at 24 h [10]: 1630 ng·h/mL | CLint scaled at 1 µM [11]: 13.7 mL/min/kg | bioavailability [12]: 56.4% | Cmax [13]: 1260 ng/mL

O=C1CCCc2cc(F)c(C(=O)Nc3cccc(-c4nncn4C4CC4)n3)cc2N1
half-life at 1 µM [1]: 11.9 h | Cmax [2]: 1220 ng/mL | CL/F [3]: 14.2 mL/min/kg | AUC(0-t) at 24 h [4]: 2720 ng·h/mL | half-life at 1 µM [5]: 8.87 h | Vd [6]: 0.7 L/kg | half-life [7]: 3.82 h | half-life [8]: 0.71 h | CLint scaled at 1 µM [9]: 2.4 mL/min/kg | AUC(0-t) at 24 h [10]: 1170 ng·h/mL | CLint scaled at 1 µM [11]: 4.7 mL/min/kg | bioavailability [12]: 47% | Cmax [13]: 829 ng/mL

CC(CO)n1cnnc1-c1cccc(NC(=O)c2cc3c(cc2F)OCC(=O)N3)n1 (stereo not given)
half-life at 1 µM [1]: 2.96 h | Cmax [2]: 514 ng/mL | CL/F [3]: 72.5 mL/min/kg | AUC(0-t) at 24 h [4]: 21 ng·h/mL | half-life at 1 µM [5]: 2.12 h | Vd [6]: 1.25 L/kg | half-life [7]: 1.55 h | half-life [8]: 0.22 h | CLint scaled at 1 µM [9]: 9.8 mL/min/kg | AUC(0-t) at 24 h [10]: 229 ng·h/mL | CLint scaled at 1 µM [11]: 19.5 mL/min/kg | bioavailability [12]: 2.1% | Cmax [13]: 27 ng/mL

CC(C)n1cnnc1-c1cccc(NC(=O)c2cc3c(cc2F)C(C)(C)CC(=O)N3C)n1
half-life at 1 µM [1]: 2.71 h | Cmax [2]: 418 ng/mL | CL/F [3]: 20.8 mL/min/kg | AUC(0-t) at 24 h [4]: 3180 ng·h/mL | half-life at 1 µM [5]: 1.64 h | Vd [6]: 1.82 L/kg | half-life [7]: 5.02 h | half-life [8]: 1.12 h | CLint scaled at 1 µM [9]: 10.7 mL/min/kg | AUC(0-t) at 24 h [10]: 789 ng·h/mL | CLint scaled at 1 µM [11]: 25.3 mL/min/kg | bioavailability [12]: 89.1% | Cmax [13]: 550 ng/mL

CC(C)n1cnnc1-c1cccc(NC(=O)c2cc3c(cc2F)CCCC(=O)N3)c1
half-life at 1 µM [1]: 8.31 h | Cmax [2]: 420 ng/mL | CL/F [3]: 52 mL/min/kg | AUC(0-t) at 24 h [4]: 252 ng·h/mL | half-life at 1 µM [5]: 6.69 h | Vd [6]: 2.19 L/kg | half-life [7]: 1.84 h | half-life [8]: 0.72 h | CLint scaled at 1 µM [9]: 3.5 mL/min/kg | AUC(0-t) at 24 h [10]: 320 ng·h/mL | CLint scaled at 1 µM [11]: 6.2 mL/min/kg | bioavailability [12]: 16% | Cmax [13]: 109 ng/mL

O=C(Nc1cccc(-c2nncn2C2CC2)n1)c1cc2c(cc1F)OCc1cncn1-2
half-life at 1 µM [1]: 1.34 h | half-life at 1 µM [5]: 0.228 h | CLint scaled at 1 µM [9]: 21.7 mL/min/kg | CLint scaled at 1 µM [11]: 181 mL/min/kg

CC(C)n1cnnc1-c1cccc(NC(=O)c2cc3c(cc2F)C(C)(C)CC(=O)N3)n1
Cmax [2]: 945 ng/mL | CL/F [3]: 13.8 mL/min/kg | AUC(0-t) at 24 h [4]: 4560 ng·h/mL | Vd [6]: 1.07 L/kg | half-life [7]: 2.03 h | half-life [8]: 0.99 h | AUC(0-t) at 24 h [10]: 1200 ng·h/mL | bioavailability [12]: 75.9% | Cmax [13]: 1420 ng/mL

CC(C)n1cnnc1-c1cccc(NC(=O)c2cc3c(cc2F)CCC(=O)N3C)n1
half-life at 1 µM [1]: 3.95 h | Cmax [2]: 594 ng/mL | CL/F [3]: 24.8 mL/min/kg | AUC(0-t) at 24 h [4]: 2660 ng·h/mL | half-life at 1 µM [5]: 1.2 h | Vd [6]: 1.32 L/kg | half-life [7]: 1.13 h | half-life [8]: 0.86 h | CLint scaled at 1 µM [9]: 7.3 mL/min/kg | AUC(0-t) at 24 h [10]: 668 ng·h/mL | CLint scaled at 1 µM [11]: 34.3 mL/min/kg | bioavailability [12]: 80.7% | Cmax [13]: 964 ng/mL

O=C1COc2cc(F)c(C(=O)Nc3cccc(-c4nncn4-c4ccccc4)n3)cc2N1
half-life at 1 µM [1]: 2.55 h | Cmax [2]: 1580 ng/mL | CL/F [3]: 3.33 mL/min/kg | AUC(0-t) at 24 h [4]: 12100 ng·h/mL | half-life at 1 µM [5]: 8.74 h | Vd [6]: 0.68 L/kg | half-life [7]: 2.95 h | half-life [8]: 3.15 h | CLint scaled at 1 µM [9]: 11.4 mL/min/kg | AUC(0-t) at 24 h [10]: 5070 ng·h/mL | CLint scaled at 1 µM [11]: 4.7 mL/min/kg | bioavailability [12]: 47.9% | Cmax [13]: 3000 ng/mL

CC(C)N1C(=O)COc2cc(F)c(C(=O)Nc3cccc(-c4nncn4C(C)C)n3)cc21
half-life at 1 µM [1]: 0.917 h | half-life at 1 µM [5]: 0.297 h | CLint scaled at 1 µM [9]: 31.6 mL/min/kg | CLint scaled at 1 µM [11]: 140 mL/min/kg

O=C(Nc1cccc(-c2nncn2C2CCCC2)n1)c1cc2c(cc1F)OCc1cncn1-2
half-life at 1 µM [1]: 0.35 h | half-life at 1 µM [5]: 0.18 h | CLint scaled at 1 µM [9]: 82.7 mL/min/kg | CLint scaled at 1 µM [11]: 230 mL/min/kg

CC(C)n1cnnc1-c1cccc(NC(=O)c2cc3c(cc2F)CCC(=O)N3)n1
half-life at 1 µM [1]: 4.98 h | Cmax [2]: 2080 ng/mL | CL/F [3]: 13.2 mL/min/kg | AUC(0-t) at 24 h [4]: 534 ng·h/mL | half-life at 1 µM [5]: 3.12 h | Vd [6]: 0.56 L/kg | half-life [7]: 1.46 h | half-life [8]: 0.71 h | CLint scaled at 1 µM [9]: 5.8 mL/min/kg | AUC(0-t) at 24 h [10]: 1260 ng·h/mL | CLint scaled at 1 µM [11]: 13.3 mL/min/kg | bioavailability [12]: 8.8% | Cmax [13]: 334 ng/mL
